Read-outs that look alike come from different tables or passages of the source.

This note sets out measurements from patent US10940139B2, “Compounds that interact with the Ras superfamily for the treatment of cancers, inflammatory diseases, rasopathies, and fibrotic disease” (Shy Therapeutics LLC, priority 2017, dated 2021).

The target of assay [1] is KRas G12C/Q61H double mutant (Homo sapiens (Human), UniProt P01116, G12C/Q61H). Briefly: Ras GTP binding domain inhibition assay (labeled GTP). The conditions noted are these: 20 μM compound. The procedure, abridged:
(§1)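 Labelled-GTP binding: plate-captured His-KRas protein was pre-exposed to compound for 3 h at room temperature (single 20 μM point or dilution series, 1% DMSO, Tris pH 7.5/MgCl2/DTT buffer). Cy3- or Cy5-GTP was then added for 45 min. Washed wells were read for retained fluorescence to give inhibition or IC50.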

Assay [2] concerns the target KRas G12D/Q61H double mutant (Homo sapiens (Human), UniProt P01116, G12D/Q61H). The description is as above. Summed up:
as §1

In another assay the target is KRas Q61H mutant (Homo sapiens (Human), UniProt P01116, Q61H). Described as above. The conditions noted are these: 20 μM compound. The procedure, abridged: as §1
Sequence of KRas Q61H mutant (P01116-2 other isoform, or with tags, fused parts or gaps Q61H): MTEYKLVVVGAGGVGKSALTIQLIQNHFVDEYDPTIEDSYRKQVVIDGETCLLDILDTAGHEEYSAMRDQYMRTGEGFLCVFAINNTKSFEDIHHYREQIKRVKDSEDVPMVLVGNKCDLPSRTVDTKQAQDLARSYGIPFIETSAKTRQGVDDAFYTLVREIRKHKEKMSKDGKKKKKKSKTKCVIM
The next assay concerns the target KRas G12D mutant protein (Homo sapiens (Human), UniProt P01116, G12D). Described as above. The conditions noted are these: at 20 μM; read-out: KRas G12D % Inh.
For another assay, the target named is Rac-1 (Homo sapiens (Human), UniProt P63000). Nature of the assay: Rac inhibition assay (labeled GTP). It counts as binding. Particulars: read-out: Rac-1 % Inh.
The target of a further assay is Rho-A (Homo sapiens (Human), UniProt P61586). Nature of the assay: Rho inhibition assay (labeled GTP). It counts as binding. The conditions noted are these: read-out: Rho-A % Inh.
Sequence of Rho-A (P61586 whole entry): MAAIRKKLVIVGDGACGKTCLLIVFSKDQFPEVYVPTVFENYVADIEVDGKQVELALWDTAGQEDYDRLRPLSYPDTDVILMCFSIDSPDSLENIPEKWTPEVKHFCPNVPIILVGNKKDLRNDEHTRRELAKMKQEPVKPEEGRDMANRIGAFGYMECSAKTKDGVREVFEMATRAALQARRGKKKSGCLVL
The mark [3] stands for this setting: read-out: % Inhibition at 20 μM KRas G12C Q61H.
Setting [4] is: 20 μM compound, read-out: % Inhibition at 20 μM KRas G12D Q61H.
[5] abbreviates: read-out: % Inhibition at 20 μM KRas Q61H.
The mark [6] stands for this setting: KRas G12C/Q61H double mutant, read-out: % Inhibition at 20 μM of K-Ras mutant and wild-type protein, KRas G12C Q61H.
Where [7] appears, read: 20 μM compound, KRas G12D/Q61H double mutant, read-out: % Inhibition at 20 μM of K-Ras mutant and wild-type protein, KRas G12D Q61H.
Setting [8] is: KRas Q61H, read-out: % Inhibition at 20 μM of K-Ras mutant and wild-type protein, KRas Q61H.
Where [9] appears, read: at 20 μM, read-out: KRas G12D Q61H % Inh.

Sequence of KRas G12D mutant protein (P01116-2 other isoform, or with tags, fused parts or gaps G12D): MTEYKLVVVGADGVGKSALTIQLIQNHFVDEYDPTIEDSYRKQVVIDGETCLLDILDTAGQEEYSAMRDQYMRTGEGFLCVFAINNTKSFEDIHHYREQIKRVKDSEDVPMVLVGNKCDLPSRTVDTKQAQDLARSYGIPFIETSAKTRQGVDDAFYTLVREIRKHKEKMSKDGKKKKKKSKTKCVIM
Sequence of KRas G12D/Q61H double mutant (P01116-2 other isoform, or with tags, fused parts or gaps G12D/Q61H): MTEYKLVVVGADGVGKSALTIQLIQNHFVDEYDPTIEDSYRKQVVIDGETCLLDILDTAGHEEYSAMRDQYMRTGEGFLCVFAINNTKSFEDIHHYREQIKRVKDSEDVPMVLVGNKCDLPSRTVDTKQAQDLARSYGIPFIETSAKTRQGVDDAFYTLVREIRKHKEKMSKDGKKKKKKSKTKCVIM
Sequence of KRas G12C/Q61H double mutant (P01116-2 other isoform, or with tags, fused parts or gaps G12C/Q61H): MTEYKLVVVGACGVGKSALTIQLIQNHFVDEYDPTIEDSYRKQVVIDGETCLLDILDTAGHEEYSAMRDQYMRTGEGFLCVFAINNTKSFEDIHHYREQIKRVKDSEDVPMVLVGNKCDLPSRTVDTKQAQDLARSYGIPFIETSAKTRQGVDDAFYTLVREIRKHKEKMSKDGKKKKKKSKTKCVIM

For `COc1cc(CCN(C)C(=O)c2csc3nc(-c4ccccn4)nc(N4CCOCC4)c23)ccn1` [drawing 2781], the values for the inhibition at 20 µM (in assay [1] (setting [3]); in assay [2] (setting [4]); at KRas Q61H mutant (setting [5])) were 25 to 50%, 0% and 25 to 50%, respectively.
As for `Oc1nc(-c2ccccn2)nc2c(-c3ccc(OC4CCOC4)cc3)csc12` (centres unmarked) [drawing 2862], the inhibition at 20 µM lay in the range of 1 to 25% in assay [1] (setting [3]), 25 to 50% in assay [2] (setting [4]) and 25 to 50% at KRas Q61H mutant (setting [5]).
In the case of `COc1ccnc(-c2nc(O)c3c(Br)csc3n2)c1` [drawing 2742], the values for the inhibition at 20 µM (in assay [1] (setting [3]); in assay [2] (setting [4]); on KRas Q61H mutant (setting [5])) were 1 to 25%, 25 to 50% and 25 to 50%, respectively.
In the case of `O=C(c1csc2c(O)nc(-c3ccccn3)nc12)N1CCNC(c2ccccc2Cl)C1` (centres unmarked) [drawing 2806], the values for the inhibition at 20 µM (in assay [1] (setting [3]); in assay [2] (setting [4]); on KRas Q61H mutant (setting [5])) were 51 to 75%, 25 to 50% and 76 to 100%, respectively.
`COC(=O)c1c(C)sc2c(O)nc(-c3ccccn3)nc12` [drawing 3473]: the inhibition at 20 µM (in assay [1] (setting [6]); in assay [2] (setting [7]); at KRas Q61H mutant (setting [8])) was 51 to 75% throughout.
`Oc1nc(-c2ccccn2)nc2cc(-c3ccccc3Cl)sc12` [drawing 3556]: the inhibition at 20 µM in assay [1] (setting [6]) is 25 to 50%; in assay [2] (setting [7]) it was 1 to 25%; on KRas Q61H mutant (setting [8]) it was 51 to 75%.
As to `COc1cnc(C2(N)CCCC2)nc1O` [drawing 3490], the inhibition at 20 µM in assay [1] (setting [6]) was 1 to 25%; in assay [2] (setting [7]), 1 to 25%; at KRas Q61H mutant (setting [8]), 0%.
Consider `Oc1nc(-c2ccccn2)nc2c(CC3CCCNC3)csc12` (centres unmarked) [drawing 3488], for which the inhibition at 20 µM was in the range of 51 to 75% in assay [1] (setting [6]), 25 to 50% in assay [2] (setting [7]) and 51 to 75% on KRas Q61H mutant (setting [8]).
As to `Cc1sc2c(N)nc(-c3ccccn3)nc2c1Br` [drawing 2893], the values for the inhibition at 20 µM (in assay [1] (setting [3]); in assay [2] (setting [4]); at KRas Q61H mutant (setting [5])) were 25 to 50%, 25 to 50% and 1 to 25%, respectively.
With `Cn1cnc(-c2nc(O)c3sc(-c4ccncc4)c(-c4ccccc4)c3n2)c1` [drawing 3549], the figures for the inhibition at 20 µM (in assay [1] (setting [6]); in assay [2] (setting [7]); on KRas Q61H mutant (setting [8])) were 1 to 25%, 0% and 1 to 25%, respectively.
With `COC(=O)c1sc2c(O)nc(-c3ccccn3)nc2c1C` [drawing 3476], the inhibition at 20 µM was 51 to 75% in assay [1] (setting [6]), 25 to 50% in assay [2] (setting [7]) and 51 to 75% on KRas Q61H mutant (setting [8]).
With `COc1cc(CCNC(=O)c2csc3nc(-c4ccccn4)nc(N4CCOCC4)c23)ccn1` [drawing 2747], the inhibition at 20 µM lay in the range of 25 to 50% in assay [1] (setting [3]), 1 to 25% in assay [2] (setting [4]) and 25 to 50% on KRas Q61H mutant (setting [5]).
As for `COc1nc(-c2ccccn2)nc2c(C3CCCCC3)csc12` [drawing 3479], the inhibition at 20 µM was 0% in assay [1] (setting [6]), 1 to 25% in assay [2] (setting [7]) and 1 to 25% on KRas Q61H mutant (setting [8]).
Turning to `COc1nccc(CCNC(=O)c2csc3nc(-c4ccccn4)nc(N4CCOCC4)c23)n1` [drawing 2897], the inhibition at 20 µM in assay [1] (setting [3]) was in the range of 25 to 50%; in assay [2] (setting [4]) it was 1 to 25%; at KRas Q61H mutant (setting [5]), 25 to 50%.
On to `O=C(c1csc2c(O)nc(-c3ccccn3)nc12)N1CCNC(c2ccccc2F)C1` (centres unmarked) [drawing 2776], for which the inhibition at 20 µM was in the range of 51 to 75% in assay [1] (setting [3]), 25 to 50% in assay [2] (setting [4]) and 76 to 100% at KRas Q61H mutant (setting [5]).
The like results for `COc1cc(OC)cc(N2CCN(C(=O)c3csc4c(O)nc(-c5ccccn5)nc34)CC2)c1` [drawing 2757] were, in that order, 1 to 25%, 0% and 1 to 25%.
On to `Cc1sc2c(O)nc(-c3ccccn3)nc2c1C(=O)O` [drawing 3482], for which the inhibition at 20 µM (in assay [1] (setting [6]); in assay [2] (setting [7]); at KRas Q61H mutant (setting [8])) was 25 to 50% each time.
As to `Cc1cc2nc(-c3ccccn3)nc(O)c2s1` [drawing 3472], the inhibition at 20 µM (in assay [1] (setting [6]); in assay [2] (setting [7]); on KRas Q61H mutant (setting [8])) was 51 to 75% throughout.
On to `COc1ccc(C2CN(C(=O)c3csc4c(O)nc(-c5ccccn5)nc34)CCN2)cc1` (centres unmarked) [drawing 2774], for which the values for the inhibition at 20 µM (in assay [1] (setting [3]); in assay [2] (setting [4]); at KRas Q61H mutant (setting [5])) were 76 to 100%, 1 to 25% and 76 to 100%, respectively.
As for `Oc1nc(-c2ccccn2)nc2c(-c3ccc(OC4CCCC4)cc3)csc12` [drawing 2863], the inhibition at 20 µM (in assay [1] (setting [3]); in assay [2] (setting [4]); at KRas Q61H mutant (setting [5])) was 25 to 50% each time.
`COc1ccc(N2CCN(C(=O)c3csc4c(O)nc(-c5ccccn5)nc34)CC2)cc1O` [drawing 2802]: the inhibition at 20 µM is 51 to 75% in assay [1] (setting [3]), 1 to 25% in assay [2] (setting [4]) and 51 to 75% on KRas Q61H mutant (setting [5]).
For `COC(=O)c1csc2nc(-c3ccccn3)nc(N)c12` [drawing 2895], the inhibition at 20 µM (in assay [1] (setting [3]); in assay [2] (setting [4]); at KRas Q61H mutant (setting [5])) was 25 to 50% throughout.
For the compound `COc1cnc(CNC(=O)c2sc3c(O)nc(-c4ccccn4)nc3c2C)[nH]c1=O` [drawing 3524], the inhibition at 20 µM in assay [1] (setting [6]) is 25 to 50%; in assay [2] (setting [7]), 1 to 25%; at KRas Q61H mutant (setting [8]) it was 0%.
In the same order, the values of `Oc1nc(-c2ccccn2)nc2c(CC3CNC3)csc12` [drawing 3519] are 51 to 75%, 25 to 50% and 51 to 75%.
As to `COCCCCN(C)C(=O)c1csc2nc(-c3ccccn3)nc(N3CCOCC3)c12` [drawing 2790], the values for the inhibition at 20 µM (in assay [1] (setting [3]); in assay [2] (setting [4]); at KRas Q61H mutant (setting [5])) were 25 to 50%, 1 to 25% and 51 to 75%, respectively.
On to `N#Cc1cccc(-c2csc3c(O)nc(-c4ccccn4)nc23)c1` [drawing 3503], for which the results for the inhibition at 20 µM (in assay [1] (setting [6]); in assay [2] (setting [7]); at KRas Q61H mutant (setting [8])) were 1 to 25%, 1 to 25% and 25 to 50%, respectively.
As to `COc1ccc(N2CCN(C(=O)c3csc4c(O)nc(-c5ccccn5)nc34)CC2)c(OC)c1` [drawing 2759], the inhibition at 20 µM in assay [1] (setting [3]) is 51 to 75%; in assay [2] (setting [4]), 25 to 50%; on KRas Q61H mutant (setting [5]), 51 to 75%.
As to `COCC(C)Nc1nc(-c2ccccn2)nc(C(=O)NCCCc2c[nH]cn2)c1Oc1ccccc1` (centres unmarked) [drawing 3550], the inhibition at 20 µM (in assay [1] (setting [6]); in assay [2] (setting [7]); at KRas Q61H mutant (setting [8])) was 1 to 25% throughout.
Regarding `Oc1nc(-c2ccccn2)nc2c(-c3ccccc3)csc12` [drawing 2694], the inhibition at 20 µM in assay [1] (setting [3]) lay within 25 to 50%; in assay [2] (setting [4]) it was 25 to 50%; at KRas Q61H mutant (setting [5]), 51 to 75%.
Regarding `O=C(NCCc1ccnc(O)n1)c1csc2nc(-c3ccccn3)nc(N3CCOCC3)c12` [drawing 2898], the inhibition at 20 µM in assay [1] (setting [3]) lay within 51 to 75%; in assay [2] (setting [4]), 1 to 25%; at KRas Q61H mutant (setting [5]), 51 to 75%.
Consider `O=C(c1csc2c(O)nc(-c3ccccn3)nc12)N1CCN(c2ccc(F)cc2)CC1` [drawing 2754], for which the inhibition at 20 µM was 25 to 50% in assay [1] (setting [3]), 0% in assay [2] (setting [4]) and 25 to 50% on KRas Q61H mutant (setting [5]).
In the case of `Oc1nc(-c2ccccn2)nc2c(-c3ccccc3)c(-c3ccncc3)sc12` [drawing 3548], the inhibition at 20 µM in assay [1] (setting [6]) is 0%; in assay [2] (setting [7]) it was 0%; on KRas Q61H mutant (setting [8]), 51 to 75%.
As to `COc1cnc(CNC(=O)c2csc3c(O)nc(-c4ccccn4)nc23)[nH]c1=O` [drawing 3520], the figures for the inhibition at 20 µM (in assay [1] (setting [6]); in assay [2] (setting [7]); at KRas Q61H mutant (setting [8])) were 25 to 50%, 1 to 25% and 0%, respectively.
On to `COCCNc1nc(-c2ccccn2)nc2c1c(-c1ccccc1)nn2-c1ccccn1` [drawing 3856], for which the inhibition at 20 µM was 51 to 75% at KRas G12D mutant protein, 51 to 75% in assay [2] (setting [9]), 76 to 100% at Rac-1 and 76 to 100% at Rho-A.
For the compound `Nc1nc(-c2ccccn2)nc2ccsc12` [drawing 3706], the inhibition at 20 µM on KRas G12D mutant protein is 1 to 25%; in assay [2] (setting [9]) it was 25 to 50%; on Rac-1, 76 to 100%; at Rho-A it was 76 to 100%.
For the compound `Cc1cnc(-c2ccccn2)nc1NC(=O)C1CCCc2cc(C#N)ccc21` (centres unmarked) [drawing 3699], the inhibition at 20 µM was 25 to 50% on KRas G12D mutant protein, 51 to 75% in assay [2] (setting [9]), 76 to 100% on Rac-1 and 76 to 100% on Rho-A.
On to `Oc1nc(-c2ccccn2)nc2c(-c3cc(Cl)cc(Cl)c3)csc12` [drawing 3720], for which the inhibition at 20 µM on KRas G12D mutant protein was 25 to 50%; in assay [2] (setting [9]), 25 to 50%; on Rac-1, 25 to 50%; at Rho-A it was 51 to 75%.
As for `COc1cccc(CN2CCN(C(=O)c3csc4c(O)nc(-c5ccccn5)nc34)CC2)c1` [drawing 3652], the inhibition at 20 µM at KRas G12D mutant protein lay in the range of 76 to 100%; in assay [2] (setting [9]) it was 25 to 50%; on Rac-1 it was 76 to 100%; on Rho-A, 76 to 100%.
